Assay: GHS categories as the set defines them, by LD50: 1 up to 5, 2 up to 50, 3 up to 300, 4 up to 2000, 5 above 2000 mg/kg
Conditions: rat; in vivo; po

Molecule COC(=O)c1ccc(C(=O)OC)c(N=NC(C(C)=O)C(=O)Nc2ccc(NC(=O)C(N=Nc3cc(C(=O)OC)ccc3C(=O)OC)C(C)=O)cc2)c1 (stereo not given) has a GHS category of 5.

Work on CCC(=O)OC/C=C(/C)CCC=C(C)C yielded a GHS category of 5.

C=Cc1ccc(O)c(C=C)c1 showed a GHS category of 5.

Molecule CCCCCCCCCCCC(=O)OCC(COC(=O)CCCCCC)OC(=O)CCCCCCC (stereo not given) has a GHS category of 5.

Work on CC(C)CC(=O)O[C@@H]1C[C@@H]2CC[C@@]1(C)C2(C)C (racemic) yielded a GHS category of 5.

Cc1cc(O)cc(C)c1S(C)(=O)=O showed a GHS category of 4.

Work on N[C@@H](CSCC(=O)O)C(=O)O yielded a GHS category of 5.

C=CC(=C)CCC=C(C)CCC=C(C)C=O gave a GHS category of 5.

Work on NC(=O)OC[C@@H]1[C@H](NC(=O)/C(=N\OCC(=O)O)c2csc(N)n2)C(=O)N1S(=O)(=O)O yielded a GHS category of 5.

CNc1ncnc2c1ncn2Cc1ccccc1F showed a GHS category of 4.

Cc1cc(C)c(NC(=O)c2sc(N)nc2C)c(C)c1 showed a GHS category of 4.

With CC1(c2ccc(Oc3ccccc3)cc2)OC(=O)N(Nc2ccccc2)C1=O (stereo not given) the GHS category was 5.

With CCOC(=O)C1=C(C)C=CCC1(C)C the GHS category was 5.

For COc1cc(OC)c2oc(C3(Cn4cncn4)OCCO3)cc2c1, the GHS category was 4.

In the case of CCCCCCCC/C=C\CCCCCCCC(=O)N(C)CC(=O)O, the GHS category is reported as 5.

With COC1=C(C(=O)O)N2C(=O)[C@@H](NC(=O)[C@H](N)C3=CCC=CC3)[C@H]2SC1 the GHS category was 5.

With FC(F)(F)N1C(F)(F)C(F)(F)OC(F)(F)C1(F)F the GHS category was 5.

With CCCCCCCCC(=O)O the GHS category was 5.

With CS(=O)(=O)c1ccc(F)c(C(=O)O)c1 the GHS category was 5.

With CCCC(=O)OCCC(C)CCCC(C)C (stereo not given) the GHS category was 5.

O=C(c1ccccc1)c1ccc2[nH]c(=O)oc2c1 gave a GHS category of 5.

For CC1N=C(c2ccccc2Cl)c2c(ccc(NC(=O)NCCO)c2Cl)N(C)C1=O (stereo not given), the GHS category was 5.

O=C1COc2cc(C(=O)c3ccccc3)ccc2N1 showed a GHS category of 5.

For CCOc1ccc(N(CCCC(=O)O)C(=O)c2ccc(Cl)cc2)cc1, the GHS category was 5.

c1ccc(-c2cc3ccccc3[nH]2)cc1 gave a GHS category of 5.

With Cc1cccc(C)c1N=C(O)c1cccnc1O the GHS category was 5.

For O=[N+]([O-])c1c(Cl)cccc1-c1c[nH]cc1Cl, the GHS category was 5.

NC1CCN(c2nc3c(cc2F)c(=O)c(C(=O)O)cn3-c2ccc(F)cc2F)C1 (stereo not given) gave a GHS category of 5.

For CCOC(=O)C(=O)Nc1cc(OCCOC)nc(C)n1, the GHS category was 4.

For O=C(O)c1ccccc1Nc1ccc(Cl)c2ccccc12, the GHS category was 5.

C[C@H]1C[C@@H]2[C@H]([C@@H](O)C[C@@]3(C)[C@H]2CC[C@]3(O)C(=O)COC(=O)CCC(=O)O)[C@@]2(C)C=CC(=O)C=C12 showed a GHS category of 5.

In the case of COc1ccc(OC)c(C=O)c1, the GHS category is reported as 5.

For O=C1c2ccccc2C(=O)C1c1ccc2ccccc2n1, the GHS category was 5.

In the case of Cc1cc2cc3c(C)cc(=O)oc3c(C)c2o1, the GHS category is reported as 5.

CN1C(C(=O)Nc2ccc(O)cn2)=C(O)c2sccc2S1(=O)=O showed a GHS category of 2.

Work on C=C(C)C(=O)OCC[N+](C)(C)C yielded a GHS category of 5.

Molecule O=C(c1ccc(F)cc1)c1cc(I)ccc1Cl has a GHS category of 5.

Work on O=S(O)CO yielded a GHS category of 5.

In the case of CCCCCC(CCC)COC(=O)c1ccccc1C(=O)OCC(CCC)CCCCC (stereo not given), the GHS category is reported as 5.

Work on Oc1ccc(C(O)CN2CCN(C(c3ccccc3)c3ccccc3)CC2)cc1 (stereo not given) yielded a GHS category of 5.

C=C(C)C(=O)OCCOC(=O)c1ccc2c(c1)C(=O)OC2=O gave a GHS category of 5.

For C#CCNC(=O)Oc1cccc2c1OC(C)(C)O2, the GHS category was 3.

Molecule C=COC(=O)CCCCCCCCCCC has a GHS category of 5.

Work on CC(C)OP(O)(=S)OC(C)C yielded a GHS category of 4.

In the case of C[C@]1(Cn2ccnn2)[C@H](C(=O)O)N2C(=O)C[C@H]2S1(=O)=O, the GHS category is reported as 5.

In the case of COc1nc(Nc2ccc(C=Cc3ccc(Nc4nc(OC)nc(N(CCO)CCO)n4)cc3S(=O)(=O)O)c(S(=O)(=O)O)c2)nc(N(CCO)CCO)n1, the GHS category is reported as 5.

For O=C(O)CCC(=O)O, the GHS category was 5.

Work on O=c1[nH]c2ccc([N+](=O)[O-])cc2[nH]1 yielded a GHS category of 5.

CC(=O)CC(=O)Nc1cc(Cl)c(NC(=O)CC(C)=O)cc1C gave a GHS category of 5.

For O=C(c1ccccc1)C1CCCCC1, the GHS category was 5.

C=C(C)CC1CCCCCCCCCCC1=O (stereo not given) showed a GHS category of 5.

In the case of CCCCCCCC(=O)OCCC(C)C, the GHS category is reported as 5.

For CCCCCCCCCCCCCCCCCOS(=O)(=O)O, the GHS category was 4.

In the case of O=c1[nH]c(=O)[nH]c(=O)[nH]1, the GHS category is reported as 5.

With CCC(C)O[Si](OC(C)CC)(OC(C)CC)OC(C)CC (stereo not given) the GHS category was 5.

In the case of Cc1[nH]nc(C(=O)Nc2cccc(C(F)(F)F)c2)c1Br, the GHS category is reported as 5.

Molecule CN(CC1(C)CCCO1)S(=O)(=O)c1ccc(Cl)c(S(N)(=O)=O)c1 (stereo not given) has a GHS category of 5.

With Nc1c(/N=N/c2ccc(S(=O)(=O)CCOS(=O)(=O)O)cc2)c(S(=O)(=O)O)cc2cc(S(=O)(=O)O)c(/N=N/c3ccc(S(=O)(=O)CCOS(=O)(=O)O)cc3)c(O)c12 the GHS category was 5.

CC(C)CCCCCCCOCCC#N gave a GHS category of 5.

Molecule Cc1ncc(CSSCc2cnc(C)c(O)c2CN)c(CN)c1O has a GHS category of 5.

CCCc1c(Cc2ccc(-c3ccccc3-c3nn[nH]n3)cc2)c(=O)nc2nc(SC)[nH]n12 gave a GHS category of 4.

Fc1ccccc1C1c2ccccc2CCN1c1cccc(C(F)(F)F)c1 (stereo not given) showed a GHS category of 4.

CCOC(=O)CCn1c(=N)oc2ccccc21 gave a GHS category of 4.

Work on CC(c1ccc2c(c1)Cc1ccccc1-2)S(=O)CC(=O)O (stereo not given) yielded a GHS category of 4.

With CCCCCCCCOC=O the GHS category was 5.

Cc1ccc(Nc2ccc(Nc3ccc(C)cc3S(=O)(=O)O)c3c2C(=O)c2ccccc2C3=O)c(S(=O)(=O)O)c1 showed a GHS category of 5.

For CCOC(=O)CCNc1ccccn1, the GHS category was 5.

For CCC=CCC=CCC=CCC=CCC=CCCCCCC(=O)O, the GHS category was 5.

CC/C(=C(/CC)c1ccc(O)cc1)c1ccc(O)cc1 showed a GHS category of 5.

O=C1OC(CBr)CC12CC(CBr)OC2=O (stereo not given) gave a GHS category of 5.

For Cn1c(CCCC(=O)O)nc2cc(N(CCCl)CCCl)ccc21, the GHS category was 3.

With CCCCCCCCC(=O)OCC the GHS category was 5.

In the case of CC(COc1ccc(Oc2ccccc2)cc1)Oc1ccccn1 (stereo not given), the GHS category is reported as 5.

Work on CCCCCCCCCCCCC yielded a GHS category of 5.

For CCn1cc(C(=O)O)c(=O)c2cc(F)c(N3CCNCC3)cc21, the GHS category was 5.

CC1(C)COC(Cn2ccnc2)(c2cc3ccccc3o2)OC1 showed a GHS category of 4.

For CC(=O)CCC=C(C)CCC=C(C)C, the GHS category was 5.

Work on CCC1=NN(C(=O)NC(=O)c2ccc(Cl)cc2)C(C)(CC)C1 (stereo not given) yielded a GHS category of 5.

In the case of COc1cc(Cl)c(OC)cc1Cl, the GHS category is reported as 5.

In the case of O=C(CCl)N(c1ccccc1)c1c(Cl)cccc1Cl, the GHS category is reported as 5.

Brc1cc(Br)c(Oc2nc(Oc3c(Br)cc(Br)cc3Br)nc(Oc3c(Br)cc(Br)cc3Br)n2)c(Br)c1 gave a GHS category of 5.

In the case of CC(=O)[C@@]1(O)CC[C@H]2[C@@H]3C=C(Cl)C4=CC(=O)CC[C@]4(C)[C@H]3CC[C@@]21C, the GHS category is reported as 5.

Molecule CC1N=C(c2ccccc2F)c2c(ccc(NC(=O)NCCO)c2Br)N(C)C1=O (stereo not given) has a GHS category of 5.

COc1cc([N+](=O)[O-])ccc1N=NC(C(C)=O)C(=O)Nc1cc(Cl)ccc1OC (stereo not given) showed a GHS category of 5.

Work on CCCCCCC(=O)OCC(CC)(COC(=O)CCCCCC)COC(=O)CCCCCC yielded a GHS category of 5.

CC(CCC(=O)NCCS(=O)(=O)O)C1CCC2C3C(O)CC4CC(O)CCC4(C)C3CCC12C (stereo not given) gave a GHS category of 5.

CCCOC(C)OCCC showed a GHS category of 5.

Work on CCCCn1c(C)c(C(=O)NC2CCN(CCc3ccccc3)CC2)c2cc(O)ccc21 yielded a GHS category of 5.

For Cc1cccc2ncc(C(=O)NC3CCCCC3)c(=O)n12, the GHS category was 3.

CCC(C)CCC(C)(CC)OC(C)=O (stereo not given) gave a GHS category of 5.

In the case of COC(=O)COc1nc(F)c(Cl)c(N)c1Cl, the GHS category is reported as 5.

Work on Clc1cc(Cl)c2oc(C3(Cn4cncn4)OCCCO3)cc2c1 yielded a GHS category of 4.

In the case of CCS(=O)(=O)c1cccnc1S(=O)(=O)NC(=O)Nc1nc(OC)cc(OC)n1, the GHS category is reported as 5.

In the case of CN1C(CCl)Nc2cc(Cl)c(S(N)(=O)=O)cc2S1(=O)=O (stereo not given), the GHS category is reported as 5.

CCCCC1C(=O)N(c2cccc(O)c2)N(c2cccc(O)c2)C1=O gave a GHS category of 4.

In the case of CCCCC1(CC)COC(Cn2cncn2)(c2cc3ccccc3o2)OC1 (stereo not given), the GHS category is reported as 4.

Work on N[C@@H]1CONC1=O yielded a GHS category of 5.

CC(C)Oc1cccc(NC(=O)c2ccccc2C(F)(F)F)c1 showed a GHS category of 5.

COc1cc([N+](=O)[O-])c(OC)cc1Cl showed a GHS category of 5.

In the case of O=C1NC(c2ccccc2)=C2C(=O)NC(c3ccccc3)=C12, the GHS category is reported as 5.

Molecule CCCCCCCC/C=C\CCCCCCCCCCCCC has a GHS category of 5.

For CC(=O)NCCCOc1ccc(C(=O)N2CCC(N3C(=O)CCc4ccccc43)CC2)cc1, the GHS category was 5.

In the case of Cc1cccc(NC(=O)c2cc(C)[nH]n2)c1, the GHS category is reported as 5.

In the case of COc1ccc(Cl)cc1N/C(=N/C1CCCCC1)c1cccc(C)c1, the GHS category is reported as 4.

CC(C)CCCCCCCCCCCCCCC(=O)O showed a GHS category of 5.

C[Si](C)(CCCN)N1CCC[Si]1(C)C showed a GHS category of 4.

In the case of CC(=O)N1c2ccccc2SC1c1cc([N+](=O)[O-])ccc1OCCCN(C)C1CCCCC1 (stereo not given), the GHS category is reported as 5.

With CN1CCN(C(=S)SSC(=S)N2CCN(C)CC2)CC1 the GHS category was 5.

CC(C)(C)CC(C)(C)c1ccc(O)c(-n2nc3ccccc3n2)c1 showed a GHS category of 5.

In the case of CN(CCO)S(=O)(=O)C(F)(F)C(F)(F)C(F)(F)C(F)(F)F, the GHS category is reported as 5.

In the case of COc1cc(S(=O)(=O)O)c(C)cc1NC(=O)CC(C)=O, the GHS category is reported as 5.

Work on N#CC(C(=O)OCC(COC(=O)C(C#N)=C(c1ccccc1)c1ccccc1)(COC(=O)C(C#N)=C(c1ccccc1)c1ccccc1)COC(=O)C(C#N)=C(c1ccccc1)c1ccccc1)=C(c1ccccc1)c1ccccc1 yielded a GHS category of 5.

Oc1c(-c2[nH]c3ccccc3c2O)[nH]c2ccccc12 gave a GHS category of 5.

CCN1CCN(C(=O)N[C@@H](C(=O)N[C@]2(OC)C(=O)N3C(C(=O)O)=C(CSc4nnnn4C)CS[C@@H]32)[C@H](C)O)C(=O)C1=O showed a GHS category of 5.

For CCC(C)(C)c1ccc(OP(=O)(NC)OC)c(Cl)c1 (stereo not given), the GHS category was 3.

Work on COCc1ccc(C=O)o1 yielded a GHS category of 5.

CCCC(=O)OCC(C)C showed a GHS category of 5.

Molecule COc1ccc2[nH]c(C)c(CC(=O)OCC(=O)O)c2c1 has a GHS category of 5.

For NP(N)(=O)Oc1ccccc1, the GHS category was 4.

For CCCCCCCOCC(C)CC=O (stereo not given), the GHS category was 5.
